In paper PMC7463931, “Structure-Antifouling Activity Relationship and Molecular Targets of Bio-Inspired(thio)xanthones” (Biomolecules, 2020):
Where two headings read alike, the source gives them in different places.

Key:
Artemia salina nauplii = assay: Brine shrimp (Artemia salina) lethality test; assay type: in vivo; details: 25 and 50 µM, 48 h of exposure
Method: Ecotoxicity to non-target species was assessed using the brine shrimp (Artemia salina) lethality test standard protocol. Artemia cysts were cultivated and newly hatched nauplii I were used for the exposure to the most promising antifouling compounds at 50 and 25 µM. The bioassay was performed in 96-well microplates with eight replicates per condition and 15–20 nauplii per well. Positive (K2Cr2O7 at 13.6 µM) and negative (DMSO) controls were included. After 48 h of exposure, the percentage of nauplii mortality was determined.

[1] = molecular target: T1, Electrophorus electric AChE Type V-S (Electrophorus electricus, UniProt O42275); assay: In vitro determination of acetylcholinesterase (AChE) inhibition activity; assay type: biochemical; details: for AChE inhibition compared to control: 50 µM; for dose-response of AChE activity: Figure 4b
T1 construct: purchased SIGMA C2888
Method: AChE inhibition was evaluated as a neurotransmission biomarker for the 19 compounds using Electrophorus electric AChE Type V-S (SIGMA C2888, E.C. 3.1.1.7), according to Ellman et al. (1961) and modified by Almeida et al. (2015). Briefly, 250 μL of the reaction solution containing 30 mL of phosphate buffer, 1mL of the reagent dithiobisnitrobenzoate (DTNB) at 10 mM (acid dithiobisnitrobenzoate and sodium hydrogen carbonate in phosphate buffer), and 200 μL of […] 0.075 M was added to 50 μL of pure AChE (0.25 U.mL^−1) and each test compound at final concentration of 30 μg mL^−1 in quadruplicate. AChE activity was followed at 412 nm during 5 min at 25 °C. Negative and positive controls were included, namely ultra-pure water and eserine (20 mM), respectively, and a blank containing 50 μL of phosphate buffer.

[2] = Toxicity (mortality, LC50) to mussel plantigrade larvae in the anti-settlement bioassay; assay type: in vivo, Mytilus galloprovincialis; details: Mytilus galloprovincialis, in vivo, other: immersion in test media in filtered seawater; mussel plantigrade larvae; read-out: LC50 (median lethal dose)
Method: (§1) The 19 xanthone derivatives were screened for anti-settlement activity toward M. galloprovincialis plantigrade larvae. Samples of M. galloprovincialis juveniles were collected from mussel beds during low tides in the intertidal zone of Memória beach, Matosinhos, Portugal (41°13′59″ N; 8°43′28″ W). Mussel plantigrade larvae (0.5–2 mm) were sorted in a binocular magnifier (Olympus SZX2-ILLT, Tokyo, Japan) and kept in filtered seawater until bioassays preparation. […] Five competent larvae were included per well and four well replicates per condition. Stock solutions (50 mM) in DMSO were used to prepare test media in filtered seawater (0.1%). Negative and positive controls were used, namely DMSO (0.1%) and CuSO4 (5 μM) as an efficient antifouling agent. After exposure, the anti-settlement bioactivity was determined by the observation of efficiently attached plantigrade larvae considering the existence/absence of produced byssal threads for each test condition. Compounds producing more than 50% of settlement inhibition at 50 µM were selected for antifouling effectiveness (EC50) and toxicity (LC50 and therapeutic index) bioassays, according to previously validated experimental conditions.
(§2) Therapeutic ratios (LC50/EC50) were used to evaluate the effectiveness versus toxicity of bioactive compounds. For the differential proteome analysis, non-parametric Kruskall-Wallis (KW) and Mann Whitney (MW) tests were utilized to report protein abundance differences between treatments in MultiExperiment Viewer (MeV) version 4.9 (The Institute for Genomic Research (TIGR), La Jolla, CA, USA) at a confidence level of 95% [34]. The hierarchical clustering of proteins was made using Pearson correlation and average linkage method.

[3] = tested on: Mytilus galloprovincialis plantigrade larvae; assay: M. galloprovincialis larvae anti-settlement bioassay; assay type: in vivo; details: for EC50: dose-response, read-out: EC50 (concentration that inhibited 50% of larval settlement); for inhibition at 50 µM: initial screening bioassay at 50 µM, 15 h
Method: as §1, §2

[4] = tested on: Agaricus bisporus tyrosinase; assay: In vitro determination of tyrosinase inhibition activity; assay type: biochemical
Method: Tyrosinase inhibition assays were conducted using Agaricus bisporus tyrosinase (EC 1.14.18.1) according to Adhikari et al. with appropriate adaptations. The enzymatic reaction follows the catalytic conversion of L-Dopa to dopaquinone and the formation of dopachrome by measuring the absorbance at 475 nm. Briefly, 50 µL of tyrosinase (25 U.mL^−1) in 50 mM phosphate buffer pH 6.5, adding the defined concentration of compounds in DMSO. The enzymatic activity was initiated by L-dopa (25 mM). Kojic acid was used as positive control and DMSO as negative control.

[5] = tested on: Mytilus galloprovincialis plantigrade larvae; assay: Toxicity (mortality, LC50) to mussel plantigrade larvae in the anti-settlement bioassay; assay type: in vivo
Method: as §1, §2

[6] = tested on: Mytilus galloprovincialis plantigrade larvae; set-up: method as in PMID 31669574; details: at 108 µM, same bioassay conditions; cited from earlier work

T1 sequence (O42275 24-633): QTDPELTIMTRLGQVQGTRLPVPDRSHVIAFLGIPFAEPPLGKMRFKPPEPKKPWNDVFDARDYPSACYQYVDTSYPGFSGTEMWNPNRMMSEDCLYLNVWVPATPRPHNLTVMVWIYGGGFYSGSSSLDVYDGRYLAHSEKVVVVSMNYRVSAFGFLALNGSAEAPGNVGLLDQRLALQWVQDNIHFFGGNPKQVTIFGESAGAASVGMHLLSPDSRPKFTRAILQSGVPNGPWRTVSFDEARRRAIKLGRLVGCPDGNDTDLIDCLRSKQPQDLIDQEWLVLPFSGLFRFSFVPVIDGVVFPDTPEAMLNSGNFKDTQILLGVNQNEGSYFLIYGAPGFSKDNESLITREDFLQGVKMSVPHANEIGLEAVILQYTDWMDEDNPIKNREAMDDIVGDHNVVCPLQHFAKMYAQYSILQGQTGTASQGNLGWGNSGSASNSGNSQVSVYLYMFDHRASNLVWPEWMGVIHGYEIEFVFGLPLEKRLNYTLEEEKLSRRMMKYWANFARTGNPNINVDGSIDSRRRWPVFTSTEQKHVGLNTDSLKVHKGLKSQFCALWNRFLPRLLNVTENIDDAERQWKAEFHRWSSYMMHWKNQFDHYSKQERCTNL

For `O=c1c2ccccc2oc2c(O)cccc12` [Compound 4, 4-hydroxy-], which Artemia salina mortality (Artemia salina nauplii) is on record?
Its Artemia salina mortality is > 10%.

What about the “AChE inhibition compared to control” value [1] of the same compound?
The value was “showed AChE inhibition”.

What about the “dose-response of AChE activity” value [1] of the same compound?
The value was “concentration-dependent modulation of AChE activity”.

And the LC50 at 15 h [2]?
Its LC50 at 15 h is > 500 µM.

What about the EC50 ([3]; Probit regression, 95% CI) of the same compound?
Its EC50 is 21.5 µM.

What about the EC50 [3] of the same compound?
Its EC50 is 4.55 µg/mL.

And the inhibition at 50 µM [3]?
The inhibition at 50 µM was 70 ± 12.9%.

Which Artemia salina mortality (Artemia salina nauplii) does the source give for `O=c1c2ccccc2oc2ccc(O)c(O)c12` [Compound 5, 1,2-dihydroxy-] here?
Its Artemia salina mortality is > 10%.

What about the “AChE inhibition compared to control” value [1] of the same compound?
The value was “showed AChE inhibition”.

What about the “dose-response of AChE activity” value [1] of the same compound?
The value was “concentration-dependent modulation of AChE activity”.

And the LC50 at 15 h [2]?
The LC50 at 15 h was > 500 µM.

And the EC50 ([3]; Probit regression, 95% CI)?
The EC50 was 15.5 µM.

What about the EC50 [3] of the same compound?
The EC50 was 3.52 µg/mL.

And the inhibition at 50 µM [3]?
The inhibition at 50 µM was 70 ± 12.9%.

Which Artemia salina mortality (Artemia salina nauplii) does the source give for `O=c1c2ccccc2oc2c(O)c(O)ccc12` [Compound 7, 3,4-dihydroxy-] here?
Its Artemia salina mortality is < 10%.

And the LC50 at 15 h [2]?
The LC50 at 15 h was > 500 µM.

What about the EC50 ([3]; Probit regression, 95% CI) of the same compound?
Its EC50 is 11.5 µM.

What about the EC50 [3] of the same compound?
The EC50 was 2.63 µg/mL.

And the inhibition at 50 µM [3]?
Its inhibition at 50 µM is 65 ± 17.1%.

What about the “induction of tyrosinase activity” value ([4]; 25 μM) of the same compound?
The value was 11.7%.

And the “induction of tyrosinase activity” value ([4]; 200 μM)?
The value was 62.5%.

For `O=c1c2ccc(O)cc2oc2cc(O)ccc12` [Compound 8, 3,6-dihydroxy-], which “inhibition of tyrosinase activity” value ([4]; 50 µM) is on record?
Its value is 34%.

With `CC1(C)CCc2cc3c(=O)c4ccccc4oc3c(O)c2O1` [Compound 10, 4-dihydro-12-hydroxy-2,2-dimethyl-2H,6H-pyrano [3,2-b]xanthone] as the compound, how does the Artemia salina mortality (Artemia salina nauplii) read?
Its Artemia salina mortality is < 10%.

What about the LC50 at 15 h [2] of the same compound?
The LC50 at 15 h was > 500 µM.

What about the “mortality of mussel plantigrade larvae” value ([5]; at 100 µM) of the same compound?
Its value is 15%.

What about the EC50 ([3]; Probit regression, 95% CI) of the same compound?
The EC50 was 4.6 µM.

And the EC50 [3]?
Its EC50 is 1.36 µg/mL.

What about the inhibition at 50 µM [3] of the same compound?
Its inhibition at 50 µM is 75 ± 9.6%.

For `CCCOc1ccc(NCCc2ccc3c(c2)OCO3)c2c(=O)c3ccccc3sc12` [Compound 15, 1-[11]-4-propoxy-9H-thioxanthen-9-one], which Artemia salina mortality (Artemia salina nauplii) is on record?
The Artemia salina mortality was > 10%.

And the LC50 at 15 h [2]?
The LC50 at 15 h was > 500 µM.

What about the EC50 ([3]; Probit regression, 95% CI) of the same compound?
The EC50 was 28.6 µM.

What about the EC50 [3] of the same compound?
Its EC50 is 12.4 µg/mL.

What about the inhibition at 50 µM [3] of the same compound?
Its inhibition at 50 µM is 71.2 ± 10.9%.

Which results are given for `CCCOc1ccc(N2CCCCC2)c2c(=O)c3ccccc3sc12` [Compound 17, 1-(piperidin-1-yl)-4-propoxy-9H-thioxanthen-9-one]?
Artemia salina mortality (Artemia salina nauplii): > 10%; LC50 at 15 h [2]: > 500 µM; mortality of mussel plantigrade larvae ([5]; at 500 µM): 17%; EC50 ([3]; Probit regression, 95% CI): 3.53 µM; EC50 [3]: 1.25 µg/mL; inhibition at 50 µM [3]: 71.7 ± 5%

With `N#Cc1c(-c2ccc(Cl)cc2)[nH]c(C(F)(F)F)c1Br` [ECONEA] as the compound, how does the “mortality of mussel plantigrade larvae” value [6] read?
Its value is 50%.
